Structures can show the parent of a compound that is named as a salt. Where two headings read alike, the source gives them in different places.
Test system: panel of 55 breast cancer cell lines
Assay: Cell growth inhibition assay (Cell Titer Glo, 72 h, 9 doses; GI50, TGI, LC50)
Format: cell-based, human
Conditions: Homo sapiens, read-out: GI50 (converted)
[1] = AU565, AU565 cell line, censored GI50 values
[2] = BT-20, BT20 cell line, censored GI50 values
[3] = CAMA-1, CAMA1 cell line, censored GI50 values
[4] = HCC38, HCC38 cell line, censored GI50 values
[5] = HCC70, HCC70 cell line, censored GI50 values
[6] = HCC1143, HCC1143 cell line, censored GI50 values
[7] = HCC1187, HCC1187 cell line, censored GI50 values
[8] = HCC1419, HCC1419 cell line, censored GI50 values
[9] = HCC2185 cell line, censored GI50 values
[10] = MDA-MB-134-VI, MDAMB134VI cell line, censored GI50 values
[11] = MDA-MB-175-VII, MDAMB175VII cell line, censored GI50 values
[12] = MDA-MB-231, MDAMB231 cell line, censored GI50 values
[13] = MDA-MB-361, MDAMB361 cell line, censored GI50 values
[14] = MDA-MB-415, MDAMB415 cell line, censored GI50 values
[15] = MDA-MB-453, MDAMB453 cell line, censored GI50 values
[16] = MDA-MB-468, MDAMB468 cell line, censored GI50 values
[17] = SUM52PE, SUM52PE cell line, censored GI50 values
[18] = SUM149PT, SUM149PT cell line, censored GI50 values
[19] = SUM1315MO2, SUM1315MO2 cell line, censored GI50 values
[20] = SUM-159-PT, SUM159PT cell line, censored GI50 values
[21] = T47D, T47D cell line, censored GI50 values
[22] = UACC-812, UACC812 cell line, censored GI50 values
[23] = ZR-75-1, ZR751 cell line, censored GI50 values
[24] = BT-474, BT474 cell line, censored GI50 values
[25] = BT-483, BT483 cell line, censored GI50 values
[26] = HCC1395, HCC1395 cell line, censored GI50 values
[27] = HCC1428, HCC1428 cell line, censored GI50 values
[28] = HCC1500, HCC1500 cell line, censored GI50 values
[29] = HCC1806, HCC1806 cell line, censored GI50 values
[30] = HCC1937, HCC1937 cell line, censored GI50 values
[31] = HCC1954, HCC1954 cell line, censored GI50 values
[32] = SK-BR-3, SKBR3 cell line, censored GI50 values

Cc1cncc2cccc(S(=O)(=O)N3CCCN(C(=O)CN)C[C@@H]3C)c12 [Glycyl-H-1152]
GI50 [1]: 7.24 µM
GI50 (AU565, cell line AU565): 7.24 µM
GI50 [2]: 7.08 µM
GI50 (BT-20, cell line BT20): 7.08 µM
GI50 (BT-474, cell line BT474): 66.1 µM
GI50 (BT-483, cell line BT483): 44.7 µM
GI50 [3]: 8.13 µM
GI50 (CAMA-1, cell line CAMA1): 8.13 µM
GI50 [4]: 1.02 µM
GI50 (HCC38, cell line HCC38): 1.02 µM
GI50 [5]: 0.813 µM
GI50 (HCC70, cell line HCC70): 0.813 µM
GI50 [6]: 15.8 µM
GI50 (HCC1143, cell line HCC1143): 15.8 µM
GI50 [7]: 0.832 µM
GI50 (HCC1187, cell line HCC1187): 0.832 µM
GI50 [8]: 17 µM
GI50 (HCC1419, cell line HCC1419): 17 µM
GI50 (HCC1428, cell line HCC1428): 50.1 µM
GI50 (HCC1500, cell line HCC1500): 66.1 µM
GI50 (HCC1937, cell line HCC1937): 66.1 µM
GI50 (HCC1954, cell line HCC1954): 33.1 µM
GI50 [9]: 2.88 µM
GI50 (MCF7, cell line MCF7): 21.4 µM
GI50 [10]: 1.17 µM
GI50 [11]: 33.1 µM
GI50 [12]: 22.9 µM
GI50 (MDA-MB-231, cell line MDAMB231): 22.9 µM
GI50 [13]: 33.1 µM
GI50 (MDA-MB-361, cell line MDAMB361): 33.1 µM
GI50 [14]: 33.1 µM
GI50 (MDA-MB-415, cell line MDAMB415): 33.1 µM
GI50 (MDA-MB-436, cell line MDAMB436): 43.7 µM
GI50 [15]: 28.2 µM
GI50 (MDA-MB-453, cell line MDAMB453): 28.2 µM
GI50 [16]: 2.04 µM
GI50 (MDA-MB-468, cell line MDAMB468): 2.04 µM
GI50 (SK-BR-3, cell line SKBR3): 46.8 µM
GI50 [17]: 9.12 µM
GI50 (SUM52PE, cell line SUM52PE): 9.12 µM
GI50 [18]: 30.2 µM
GI50 (SUM149PT, cell line SUM149PT): 30.2 µM
GI50 [19]: 11 µM
GI50 [20]: 1.74 µM
GI50 (SUM-159-PT, cell line SUM159PT): 1.74 µM
GI50 [21]: 15.1 µM
GI50 (T47D, cell line T47D): 15.1 µM
GI50 [22]: 38 µM
GI50 (UACC-812, cell line UACC812): 38 µM
GI50 [23]: 3.55 µM
GI50 (ZR-75-1, cell line ZR751): 3.55 µM
GI50 (ZR-75B, cell line ZR75B): 66.1 µM
GI50 (cell line HCC2185): 2.88 µM
GI50 (cell line HCC3153): 33.1 µM
GI50 (cell line MDAMB134V): 1.17 µM
GI50 (cell line MDAMB175V): 33.1 µM
GI50 (cell line SUM1315MO): 11 µM

CCCCCN(C)CCC(O)(P(=O)(O)O)P(=O)(O)O [Ibandronate sodium salt]
GI50 [1]: 182 µM
GI50 (AU565, cell line AU565): 182 µM
GI50 [2]: 20.4 µM
GI50 (BT-20, cell line BT20): 20.4 µM
GI50 [24]: 105 µM
GI50 [25]: 57.5 µM
GI50 [3]: 162 µM
GI50 [4]: 57.5 µM
GI50 [5]: 69.2 µM
GI50 [6]: 43.7 µM
GI50 [7]: 170 µM
GI50 [26]: 7.41 µM
GI50 [8]: 7.59 µM
GI50 [27]: 129 µM
GI50 [28]: 38 µM
GI50 [29]: 33.1 µM
GI50 [30]: 40.7 µM
GI50 [31]: 55 µM
GI50 [9]: 15.1 µM
GI50 (HCC3153 cell line, censored GI50 values): 79.4 µM
GI50 [10]: 69.2 µM
GI50 [11]: 33.9 µM
GI50 [12]: 74.1 µM
GI50 [14]: 49 µM
GI50 [15]: 110 µM
GI50 [16]: 93.3 µM
GI50 [32]: 89.1 µM
GI50 [17]: 35.5 µM
GI50 [18]: 174 µM
GI50 (SUM225CWN, SUM225CWN cell line, censored GI50 values): 501 µM
GI50 [19]: 50.1 µM
GI50 [20]: 42.7 µM
GI50 [21]: 34.7 µM
GI50 [22]: 155 µM
GI50 [23]: 69.2 µM
GI50 (ZR-75B, ZR75B cell line, censored GI50 values): 141 µM

COc1cc2ncnc(Nc3ccc(F)c(Cl)c3)c2cc1OCCCN1CCOCC1 [Iressa]
GI50 (600MPE cell line, censored GI50 values): 7.24 µM
GI50 [1]: 1.07 µM
GI50 [24]: 0.724 µM
GI50 [25]: 6.17 µM
GI50 (BT-549, BT549 cell line, censored GI50 values): 15.1 µM
GI50 [5]: 17.4 µM
GI50 [6]: 11.7 µM
GI50 [26]: 7.08 µM
GI50 [8]: 2.75 µM
GI50 [27]: 10.7 µM
GI50 [28]: 8.13 µM
GI50 [29]: 4.68 µM
GI50 [30]: 8.32 µM
GI50 [31]: 2.04 µM
GI50 [9]: 9.33 µM
GI50 (MDA-MB-157, MDAMB157 cell line, censored GI50 values): 15.1 µM
GI50 [11]: 0.209 µM
GI50 [13]: 6.46 µM
GI50 [14]: 7.41 µM
GI50 [15]: 7.41 µM
GI50 [32]: 2.82 µM
GI50 [17]: 7.94 µM
GI50 [18]: 2.88 µM
GI50 (SUM185PE, SUM185PE cell line, censored GI50 values): 20.9 µM
GI50 [19]: 2.95 µM
GI50 [20]: 8.51 µM
GI50 [21]: 15.8 µM
GI50 (UACC-893, UACC893 cell line, censored GI50 values): 1.15 µM
